In EPA's ToxValDB 9.5 (doi:10.2903/j.efsa.2018.5150):
Converted amounts (≈) assume the structure as drawn.

Tests used:
[1] = tested on: Anas platyrhynchos; details: reproductive
[2] = tested on: Apis mellifera; details: acute, mortality
[3] = tested on: Bibionidae; details: chronic/long-term; duration: 28 days
[4] = tested on: Colinus virginianus; details: acute; oral; mortality
[5] = tested on: Daphnia magna; details: chronic/long-term; duration: 21 days
[6] = tested on: Folsomia candida; details: chronic/long-term; duration: 28 days; reproduction
[7] = tested on: Oncorhynchus mykiss; details: acute; duration: 96 hours; mortality
[8] = tested on: Rattus norvegicus
[9] = tested on: Tagia sp.; details: chronic/long-term; duration: 56 days; reproduction
[10] = tested on: Aphidius rhopalosiphi; test: LR50; higher = less toxic; details: acute; mortality

Compound `CCOC(=O)Nc1cccc(OC(=O)Nc2ccccc2)c1` [Desmedipham] has an NOAEL [1] of 11 mg/kg-day, an LD50 ([2]; dermal) greater than 100 µg/piece and an LD50 ([2]; oral, unspecified) greater than 101 µg/piece. It also gave an NOEC [3] of 0.14 mg/L, an LD50 [4] greater than 2000 mg/kg-day and an NOEC [5] of 0.02 mg/L. It also gave an NOEC [6] of 158 mg/kg, an LC50 [7] of 1.41 mg/L (≈ 4.7 µM) and an LD50 ([8]; acute, oral, mortality) greater than 5000 mg/kg-day. The NOAEL ([8]; chronic, duration: 2 years, hematological) was 3.2 mg/kg-day, the NOAEL ([8]; reproduction developmental, M, reproduction) was 4 mg/kg-day and the NOAEL ([8]; subchronic, duration: 90 days, oral, hematological) was 5.2 mg/kg-day. The NOEC [9] was 64 mg/kg and the LR50 [10] was 63.8 g/ha.
